Experimental data from article PMC10042540, “Targeting oncogenic KRasG13C with nucleotide-based covalent inhibitors” (eLife, 2023).

Experiments:
Assay type in all cases: binding
[1] = test system: nucleotide-free KRas; assay: Stopped-flow competition with mantdGDP (association kinetics); conditions: for kon: 25 °C, 1 µM KRas, 2 µM mantdGDP, 1, 2, 6 µM competing nucleotide, global fit; for koff: calculated kinetic parameter
Procedure: The association kinetics of the nucleotide analogues were analyzed with a SX-20 stopped-flow instrument (Applied Photophysics) at 25 °C in a buffer consisting of 25 mM HEPES (pH 7.5), 100 mM NaCl, 1 mM MgCl2, and 0.5 mM TCEP. 1 µM of nucleotide-free KRas ([Müller et al., 2017]) in one syringe was mixed rapidly with 2 µM mantdGDP in the other. In subsequent experiments, the second syringe contained competing nucleotides (1, 2, and 6 µM) in addition to 2 µM mantdGDP. The resulting progress curves were globally fit using KinTek Explorer to obtain the corresponding association rate constants as previously described (Table 1—source data 1, Table 1—source data 2 [Johnson et al., 2009]).

[2] = test system: T1, KRasG13C1-169 (Cys-light); assay: Covalent modification of protein controlled by ESI-MS
T1 construct: KRasWT1-169 and KRasG13C1-169 Cys-light (C51S C80L C118S) were expressed in BL21 (DE3) E. coli; hexahistidine (TEV site) (N, cleaved yes); made in house; host or cells: E. coli BL21 (DE3)
Procedure: After incubation at room temperature for the appropriate time, the modification of the protein was controlled by ESI-MS. For covalent modification of full-length KRasG13C, a nucleotide exchange with a 10-fold excess of the acryl-bearing nucleotides at pH 7.5 was first performed following incubation at room temperature for 24 h at pH 9.5 for covalent protein modification. Covalent protein modification was controlled by ESI-MS. The MS spectra were recorded on a VelosPro IonTrap (Thermo Scientific) with an EC 50/3 Nucleodur C18 1.8 μm column (Macherey and Nagel) and a gradient of the mobile phase A (0.1% formic acid in water) to B (0.1% formic acid in acetonitrile).

[3] = biological target: KRasWT1-169 (Homo sapiens, UniProt P01116); assay: HPLC-based approach for determination of affinities relative to GDP; conditions: for KA: KA = KA(GDP) x KrelA, GDP from KA = 1/KD; for relative association constant KrelA: relative to GDP
KRasWT1-169, sequence (P01116 1-169): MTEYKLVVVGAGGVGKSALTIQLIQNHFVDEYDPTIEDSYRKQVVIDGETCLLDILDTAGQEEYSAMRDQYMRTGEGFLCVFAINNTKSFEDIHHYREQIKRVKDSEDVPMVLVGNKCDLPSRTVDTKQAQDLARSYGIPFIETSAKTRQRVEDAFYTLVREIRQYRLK
Procedure: The relative affinities of the nucleotide analogues were measured using an HPLC-based approach. 50 μM of […] was mixed with 50 μM of the acetamide derivatives and incubated either for 7 days at room temperature in the absence of EDTA, for 24 hr at 4 °C in the presence of 10 mM EDTA, or for 1 hr at room temperature in the presence of SOS in a buffer consisting of 20 mM HEPES (pH 7.5), 100 mM NaCl, 2 mM MgCl2, 1 mM TCEP and 5% glycerol. After incubation, the Ras proteins were washed five times with buffer (15 mL) using centrifugal filter devices to remove any unbound nucleotide, concentrated and analysed by isocratic HPLC runs. The resulting curves were analysed by integrating the corresponding peaks for GDP and the guanosine nucleotide analogues after distinct time points using the Agilent ChemStation Software (Table 1-source data 3, Table 1-source data 4). Based on the percentage distribution determined by the HPLC assay, the relative association constants (KrelA) for […] and bdaGDP could subsequently be calculated. In contrast, the superposition of the GDP signal prevented an exact determination of the relative association constant for […] values of 0.34 and 0.28 relative to GDP were determined for […] and bdaGDP, respectively. […] By rearranging the equilibrium reactions listed in (Equation 1a) and (Equation 1b), the following relationships are obtained for KGDP (Equation 2a) and […] Assuming that the concentration for aGDP used in the HPLC assay is 50 μM, the following GDP concentrations for […] (Equation 3a) and bdaGDP (Equation 3b) can be determined at time t=0 hr using the percentages determined in Table 1-source data 3:(3a) GDPtotal=%GDP/%[…]=37%/63%×50μM=29.4μM (3b) GDPtotal=%GDP/%bdaGDP=43%/57%×50μM=37.7μM The concentrations of the components listed in equation (Equation 2b) can be calculated as follows for […] (Equation 4a, Equation 4b, Equation 4c, Equation 4d) and bdaGDP (Equation 5a, Equation 5b, Equation 5c, Equation 5d) by considering the total GDP concentrations calculated previously:(4[…]]=47/100×29.4μM=13.8μM (4b) [Ras:GDP]=53/100×29.4μM=15.6μ[…]]=50μM-13.8μM=36.2μM (4d) [GDP]=29.4μM-15.6μM=13.8μM (5a) [Ras:bdaGDP]=39.5/100×37.7μM=14.9μM (5b) [Ras:GDP]=60.5/100×37.7μM=22.8μM (5c) [bdaGDP]=50μM-14.9μM=35.1μM (5d) [GDP]=37.7μM-22.8μM=14.9μM The relative association constant KrelA can be calculated by the following formula (Equation 6):(6) […] By inserting the concentrations of each component determined from (Equation 4a, Equation 4b, Equation 4c, Equation 4d) and (Equation 5a, Equation 5b, Equation 5c, Equation 5d) into (Equation 6), the relative association constants KrelA for […] (Equation 10a) and […]=1/0.136pM^-1=7.4pM (10b) KDbdaGDP=1/0.112pM^-1=8.9pM

[4] = -EDTA, 7 days at room temperature
[5] = worked calculation KD = 1/KA, Equation 10a/10b

Kd ([3]; +SOS, 1 hr at room temperature) [pM]	Kd [3, 4] [pM]	KA [3] [pM⁻¹]	relative association constant KrelA [3]	Kd [3, 5] [pM]	Compound	kon [1] [µM^–1s^–1]	covalent labelling of KRasG13C1-169 (Cys-light) ([2]; pH 7.5, after 24 hr)	covalent labelling of KRasG13C1-169 (Cys-light) ([2]; pH 9.5, after 24 hr) [%]	koff [1]
					Nc1nc2c(ncn2[C@@H]2O[C@H](COP(=O)(O)OP(=O)(O)OP(=O)(O)O)[C@@H](O)[C@H]2O)c(=O)[nH]1 [GTP, reference compound]	5.23			
					C=CC(=O)NCCCCNC(=O)O[C@H]1[C@@H](O)[C@H](n2cnc3c(=O)[nH]c(N)nc32)O[C@@H]1COP(=O)(O)OP(=O)(O)O [acryl-bdaGDP]		slight labelling	~100	
					C=CC(=O)NCCCNC(=O)O[C@H]1[C@@H](O)[C@H](n2cnc3c(=O)[nH]c(N)nc32)O[C@@H]1COP(=O)(O)OP(=O)(O)O [acryl-pdaGDP]		slight labelling	~100	
10	10	0.112	0.28	8.9	C=CC(=O)NCCCCNC(=O)O[C@H]1[C@@H](O)[C@H](n2cnc3c(=O)[nH]c(N)nc32)O[C@@H]1COP(=O)(O)OP(=O)(O)O [bdaGDP]	3.12			3.0x10^–5 s^–1
10.4	8	0.136	0.34	7.4	C=CC(=O)NCCCNC(=O)O[C@H]1[C@@H](O)[C@H](n2cnc3c(=O)[nH]c(N)nc32)O[C@@H]1COP(=O)(O)OP(=O)(O)O [pdaGDP]	3.34			2.9x10^–5 s^–1
